# Source: patent US11607422B2, “Uttroside B and derivatives thereof as therapeutics for hepatocellular carcinoma” (Rajiv Gandhi Centre for Biotechnology, an Autonomous …, priority 2016, dated 2023)
# pIC50: −log10 of the molar value.
# Assays:
# [1] = test system: HCT-116; experiment: MTT cell viability assay in HCT-116 cells; assay type: cell-based; conditions: 72 h
# Description: FIG. 2A is a graph comparison of IC50 of Uttroside B in a panel of cancer cells of different origin. The cancer cell lines HeLa, A375, HepG2, MDA-MB-231, HL 60, A549 and HCT116 were treated with Uttroside B as indicated, incubated for 72 h and the cell viability was assessed by MTT assay. FIG. 2B is a graph showing dose dependent effect of Uttroside B in the liver cancer cell lines and in normal immortalized hepatocytes. The liver cancer cell lines HepG2, Hep3B, SKHEP-1, Huh-7 and normal hepatocytes (Chang liver), were treated with Uttroside B incubated for 72 h and the cell viability was assessed by MTT assay. FIG. 2C is a graph comparison of IC50 of Uttroside B with sorafenib. HepG2 cells were treated with Uttroside B as indicated, incubated for 72 h, and the cell viability was assessed by MTT assay. […] The clones developed were counted and plotted as a graph. Colony containing more than four cells was counted as one clone. […]
# MTT [3-(4,5-dimethylthiazole-2-yl)-2,5-diphenyltetrazolium bromide] assay is a standard colorimetric assay, suitable for analyzing proliferation, viability, and cytotoxicity. […] At the end of incubation, the optical density was measured at 570 nm using ELISA plate reader (Bio-Rad). The relative cell viability in percentage was calculated as (A570 of treated samples/A570 of untreated samples)×100. […]
# [2] = test system: MAPK pathway in HepG2 cells; experiment: Western blot of MAPK phosphorylation (p-JNK, p-38, p-42/44); assay type: cell-based, human
# Description: FIGS. 4A-4E are images showing Uttroside B inhibits MAPK and mTOR signaling, some of the crucial survival signals in liver cancer. […] HepG2 cells were treated with Uttroside B for different time intervals (0-240 min) and the whole cell lysate was resolved on a 10% gel and immunoblotted against phospho-ERK1/2 and phospho-Akt antibodies. Taxol was used as a positive control. […] HepG2 cells were treated with Uttroside B at different time intervals and the whole cell lysate was resolved on an 8% gel and immunoblotted against phospho-mTOR (2448) and phospho-mTOR (2481) antibodies.
# Western blot analysis. Approximately 0.5×10^6 cells were grown on 60 mm culture plates and exposed to drugs as indicated for the desired time. The cells were then scraped out, washed in ice cold 1× PBS and pelleted down at 13000 rpm for 2 min. […]
# [3] = test system: caspases 8, 9 & 7 and PARP in HepG2 cells; experiment: Western blot of caspase activation and PARP cleavage in HepG2 cells; assay type: cell-based, human
# Description: FIGS. 3A-3F show Uttroside B induces caspase-dependent apoptosis leading to PARP cleavage in HepG2 cells while being independent of cell cycle. FIGS. 3A-3E are images of Western blots showing caspase activation in HepG2 cells. Whole-cell extracts were prepared after treating HepG2 cells with indicated concentrations of Uttroside B for 48 h, the whole cell lysate was resolved on a 15% gel and subjected to western blotting using antibodies against the caspases 8, 9 & 7 detected by ECL. HepG2 cells were treated with Uttroside B for 48 h at different concentrations and the whole cell lysate was resolved on a 10% gel, immunoblotted against anti-PARP and detected by ECL. […] HepG2 cells were treated with Uttroside B for 48 h, stained with propidium iodide and the cell cycle analysis was done using fluorescence activated cell sorter. Curcumin 25 μM (24 h) is used as positive control.
# Western blot analysis. Approximately 0.5×10^6 cells were grown on 60 mm culture plates and exposed to drugs as indicated for the desired time. The cells were then scraped out, washed in ice cold 1× PBS and pelleted down at 13000 rpm for 2 min. The pelleted cells were suspended in 150 μL of ice-cold whole cell lysis buffer[(20 mMTris of pH 7.4, 250 mM NaCl, 2 mM EDTA, 0.1% Triton, 1 mM DTT (1,4-dithiothreitol), 0.5 mM PMSF, 4 mM sodium orthovanadate, aprotinin (5 mg m/L) and leupeptin (5 mg m/L)] and kept in ice for 30 min, with intermittent vortexing every 5 min. After incubation, the lysate was centrifuged at 13000 rpm for 10 min at 4° C. and the supernatant was collected. The total protein content in the lysate was estimated by Bradford's method, and was then denatured by boiling with 5× loading dye before separating the proteins by SDSpolyacrylamidegel electrophoresis (SDS-PAGE). Following electrophoresis, the polyacrylamide gel and a PVDF membrane were equilibrated with Towbins buffer (1 L, 25 mM Tris, 192 mM glycine, 20% (v/v) methanol (pH 8.3) for 15-30 min and the separated proteins were electro-transferred to PVDF membrane (Hybond-P, GE Healthcare Life science) using Bio-Rad Mini PROTEAN III wet blot apparatus at 100 V for 2 h at cold conditions. After the transfer, the membrane was rinsed with TBS-T (20 mM Tris pH 7.5, 150 mM NaCl, 0.1% Tween 20) buffer and stained with Ponceau-S to ensure uniform transfer. After washing off the Ponceau stain with TBST, the membrane was exposed to 5% fat free milk in TBST buffer for 1 h at room temperature to block the nonspecific binding of antibodies, followed by overnight incubation with the primary antibody [1:1000 dilution] in 3% BSA in TBST buffer at 4° C. […]
# [4] = HepG2, 48 h, concentration dependent
compound,measurement,setting,value
C[C@H](CC[C@@]1(O)O[C@H]2C[C@H]3[C@@H]4CC[C@H]5C[C@@H](O[C@@H]6O[C@H](CO)[C@H](O[C@@H]7O[C@H](CO)[C@@H](O)[C@H](O[C@@H]8OC[C@@H](O)[C@H](O)[C@H]8O)[C@H]7O[C@@H]7O[C@H](CO)[C@@H](O)[C@H](O)[C@H]7O)[C@H](O)[C@H]6O)CC[C@]5(C)[C@H]4CC[C@]3(C)[C@H]2[C@@H]1C)CO[C@@H]1O[C@H](CO)[C@@H](O)[C@H](O)[C@H]1O [Uttroside B],pIC50,[1],5.22
same,"PMA-induced activation of p-JNK, p-38 and p-42/44",[2],down-regulated
same,"basal activation of MAPK pathway (p-42/44, p-JNK)",[2],significantly down-regulated
same,cleavage of PARP,"[3]; HepG2, 48 h",strong cleavage of the mother band to its daughter bands
same,cleavage of procaspase 7,[3]; [4],procaspase 7 into its active fragment (p-20) were also enhanced
same,cleavage of procaspase 8,[3]; [4],increase in the cleavage of procaspase 8 to its active fragments
same,cleavage of procaspase 9,"[3]; HepG2, Western blot",time-dependent and concentration-dependent increase in the cleavage of procaspase 9
